In US11000033B2, “Ketone or oxime compound, and herbicide” (NISSAN CHEMICAL CORPORATION, priority 2014, dated 2021):

Experiments:
Type in all cases: in vivo
Lolium multiflorum Lam. = test: Test Example 4: herbicidal effect by soil treatment (symbol K); conditions: application herbicide amount 320 g/ha
In short: (§1)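 Seeds were sown in sterilized diluvial soil, covered with about 1.5 cm of soil, and the soil surface was sprayed with a water-diluted emulsion of the compound at a predetermined rate. Plants grew in a greenhouse at 25° C. to 30° C.; effects were scored visually 3 weeks after application.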

beet = test: Test Example 5: effect on crop by foliage application, plastic box (symbol f); conditions: 320 g/ha, 3 weeks after application
In short: (§2)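 Seeds were sown in spots in sterilized diluvial soil held in a plastic box 21 cm × 13 cm × 7 cm deep, covered with about 1.5 cm of soil, and grown in a greenhouse at 25° C. to 30° C.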

Galium spurium = test: Test Example 4: herbicidal effect by soil treatment (symbol Q); conditions: application herbicide amount 320 g/ha
In short: as §1

rapeseed = test: Test Example 5: effect on crop by foliage application, plastic box (symbol g); conditions: 320 g/ha, 3 weeks after application
In short: as §2

[1] = system: Echinochloa crus-galli var. crus-galli; test: Test Example 3: herbicidal effect by foliage application, Wagner pot (symbol H); conditions: application herbicide amount 320 g/ha
In short: (§3)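 Weeds and rice were sown in alluvial soil under 0.1–0.5 cm of standing water and grown for 14 days in a 25–30 °C greenhouse. An emulsion of the compound, diluted in water to a set dose, was sprayed evenly onto the foliage. Effect was scored against fixed criteria 3 weeks after treatment.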

Digitaria ciliaris = test: Test Example 4: herbicidal effect by soil treatment (symbol F); conditions: application herbicide amount 320 g/ha
In short: as §1

Stellaria media [2] = test: Test Example 4: herbicidal effect by soil treatment (symbol P); conditions: application herbicide amount 320 g/ha
In short: as §1

Abutilon theophrasti [3] = test: Test Example 4: herbicidal effect by soil treatment (symbol M); conditions: application herbicide amount 320 g/ha
In short: as §1

[4] = system: directly sowed rice plant; test: Test Example 3: effect on crop by foliage application, Wagner pot (symbol b); conditions: application herbicide amount 320 g/ha
In short: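 Plants are raised from seed in flooded paddy conditions: water stands 0.1–0.5 cm over alluvial soil, and the pot is kept in a greenhouse at 25–30 °C. Species sown are barnyardgrass (E. crus-galli var. crus-galli), Leptochloa chinensis, Cyperus difformis and rice.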

rice plant = test: Test Example 5: effect on crop by foliage application, plastic box (symbol b); conditions: 320 g/ha, 3 weeks after application
In short: as §2

Abutilon theophrasti [5] = test: Test Example 5: herbicidal effect by foliage application, plastic box (symbol M); conditions: 320 g/ha, 3 weeks after application
In short: (§4)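 Leaf-applied emulsion, water-diluted to a preset herbicide dose, on two-week-old seedlings raised in a 25° C. to 30° C. greenhouse; injury rated at 3 weeks using earlier criteria.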

Setaria viridis [6] = test: Test Example 5: herbicidal effect by foliage application, plastic box (symbol G); conditions: 320 g/ha, 3 weeks after application
In short: as §4

Amaranthus retroflexus = test: Test Example 4: herbicidal effect by soil treatment (symbol N); conditions: application herbicide amount 320 g/ha
In short: as §1

Avena fatua = test: Test Example 5: herbicidal effect by foliage application, plastic box (symbol I); conditions: 320 g/ha, 3 weeks after application
In short: as §4

Stellaria media [7] = test: Test Example 5: herbicidal effect by foliage application, plastic box (symbol P); conditions: 320 g/ha, 3 weeks after application
In short: as §4

Setaria viridis [8] = test: Test Example 4: herbicidal effect by soil treatment (symbol G); conditions: application herbicide amount 320 g/ha
In short: as §1

Chenopodium album = test: Test Example 4: herbicidal effect by soil treatment (symbol O); conditions: application herbicide amount 320 g/ha
In short: as §1

Apera spica-venti [9] = test: Test Example 5: herbicidal effect by foliage application, plastic box (symbol L); conditions: 320 g/ha, 3 weeks after application
In short: as §4

Veronica persica = test: Test Example 4: herbicidal effect by soil treatment (symbol R); conditions: application herbicide amount 320 g/ha
In short: as §1

transplanted rice plant = test: Test Example 1: effect on crop, application before weed generation in submerged conditions (symbol a); conditions: application herbicide amount 320 g/ha
In short: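 Rice at 2.5 leaf stage transplanted into submerged soil (4 cm depth) sown with three weed species; herbicide applied before weed emergence.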

Leptochloa chinensis = test: Test Example 3: herbicidal effect by foliage application, Wagner pot (symbol D); conditions: application herbicide amount 320 g/ha
In short: as §3

[10] = system: Echinochloa crus-galli var. crus-galli; test: Test Example 5: herbicidal effect by foliage application, plastic box (symbol H); conditions: 320 g/ha, 3 weeks after application
In short: as §4

Apera spica-venti [11] = test: Test Example 4: herbicidal effect by soil treatment (symbol L); conditions: application herbicide amount 320 g/ha
In short: as §1

SMILES	K: Lolium multiflorum Lam., herbicidal effect grade (Lolium multiflorum Lam.)	f: beet, effect on crop (criteria of Test Example 1) (beet)	Q: Galium spurium, herbicidal effect grade (Galium spurium)	g: rapeseed, effect on crop (criteria of Test Example 1) (rapeseed)	herbicidal effect on H (Echinochloa crus-galli var. crus-galli), grade 0-5 [1]	F: Digitaria ciliaris, herbicidal effect grade (Digitaria ciliaris)	P: Stellaria media, herbicidal effect grade (Stellaria media [2])	M: Abutilon theophrasti, herbicidal effect grade (Abutilon theophrasti [3])	effect on crop b (directly sowed rice plant), grade 0-5 [4]	b: directly sowed rice plant, effect on crop (criteria of Test Example 1) (rice plant)	M: Abutilon theophrasti, herbicidal effect (criteria of Test Example 1) (Abutilon theophrasti [5])	G: Setaria viridis, herbicidal effect (criteria of Test Example 1) (Setaria viridis [6])	N: Amaranthus retroflexus, herbicidal effect grade (Amaranthus retroflexus)	I: Avena fatua, herbicidal effect (criteria of Test Example 1) (Avena fatua)	P: Stellaria media, herbicidal effect (criteria of Test Example 1) (Stellaria media [7])	G: Setaria viridis, herbicidal effect grade (Setaria viridis [8])	O: Chenopodium album, herbicidal effect grade (Chenopodium album)	L: Apera spica-venti, herbicidal effect (criteria of Test Example 1) (Apera spica-venti [9])	R: Veronica persica, herbicidal effect grade (Veronica persica)	Effect grade on crop, a: transplanted rice plant (transplanted rice plant)	also measured
CON=C(C)CC1CC(O)=C(c2c(C)cc(C(C)=NOC)cc2C)C1=O (stereo not drawn) [6-065]	5 (Herbicidal ratio of 90% or more (almost completely withered))	3 (Herbicidal ratio of 40% or higher and lower than 70%)	4 (Herbicidal ratio of 70% or higher and lower than 90%)	4 (Herbicidal ratio of 70% or higher and lower than 90%)	5 (Herbicidal ratio of 90% or more (almost completely withered))	5 (Herbicidal ratio of 90% or more (almost completely withered))	4 (Herbicidal ratio of 70% or higher and lower than 90%)	0 (Herbicidal ratio of 5% or lower (almost no effect))	5 (Herbicidal ratio of 90% or more (almost completely withered))	5 (Herbicidal ratio of 90% or more (almost completely withered))	2 (Herbicidal ratio of 20% or higher and lower than 40%)	5 (Herbicidal ratio of 90% or more (almost completely withered))	4 (Herbicidal ratio of 70% or higher and lower than 90%)	5 (Herbicidal ratio of 90% or more (almost completely withered))	3 (Herbicidal ratio of 40% or higher and lower than 70%)	5 (Herbicidal ratio of 90% or more (almost completely withered))	3 (Herbicidal ratio of 40% or higher and lower than 70%)	5 (Herbicidal ratio of 90% or more (almost completely withered))	3 (Herbicidal ratio of 40% or higher and lower than 70%)	4 (Herbicidal ratio of 70% or higher and lower than 90%)	herbicidal effect on D (Leptochloa chinensis), grade 0-5 (Leptochloa chinensis): 5 (Herbicidal ratio of 90% or more (almost completely withered)); H: Echinochloa crus-galli var. crus-galli, herbicidal effect (criteria of Test Example 1) [10]: 5 (Herbicidal ratio of 90% or more (almost completely withered)); L: Apera spica-venti, herbicidal effect grade (Apera spica-venti [11]): 5 (Herbicidal ratio of 90% or more (almost completely withered))
CON=C(C)CC1CC(O)=C(c2c(C)cc(-n3cccn3)cc2C)C1=O (stereo not drawn) [6-073]	5 (Herbicidal ratio of 90% or more (almost completely withered))	0 (Herbicidal ratio of 5% or lower (almost no effect))	0 (Herbicidal ratio of 5% or lower (almost no effect))	4 (Herbicidal ratio of 70% or higher and lower than 90%)	5 (Herbicidal ratio of 90% or more (almost completely withered))	5 (Herbicidal ratio of 90% or more (almost completely withered))	0 (Herbicidal ratio of 5% or lower (almost no effect))	0 (Herbicidal ratio of 5% or lower (almost no effect))	5 (Herbicidal ratio of 90% or more (almost completely withered))	5 (Herbicidal ratio of 90% or more (almost completely withered))	0 (Herbicidal ratio of 5% or lower (almost no effect))	5 (Herbicidal ratio of 90% or more (almost completely withered))	0 (Herbicidal ratio of 5% or lower (almost no effect))	5 (Herbicidal ratio of 90% or more (almost completely withered))	2 (Herbicidal ratio of 20% or higher and lower than 40%)	5 (Herbicidal ratio of 90% or more (almost completely withered))	0 (Herbicidal ratio of 5% or lower (almost no effect))	3 (Herbicidal ratio of 40% or higher and lower than 70%)	0 (Herbicidal ratio of 5% or lower (almost no effect))	5 (Herbicidal ratio of 90% or more (almost completely withered))	herbicidal effect on D (Leptochloa chinensis), grade 0-5 (Leptochloa chinensis): 5 (Herbicidal ratio of 90% or more (almost completely withered)); H: Echinochloa crus-galli var. crus-galli, herbicidal effect (criteria of Test Example 1) [10]: 5 (Herbicidal ratio of 90% or more (almost completely withered)); L: Apera spica-venti, herbicidal effect grade (Apera spica-venti [11]): 0 (Herbicidal ratio of 5% or lower (almost no effect))
CON=C(C)CC1CC(O)=C(c2c(C)cc(-n3cncn3)cc2C)C1=O (stereo not drawn) [6-074]	0 (Herbicidal ratio of 5% or lower (almost no effect))	0 (Herbicidal ratio of 5% or lower (almost no effect))	0 (Herbicidal ratio of 5% or lower (almost no effect))	0 (Herbicidal ratio of 5% or lower (almost no effect))	4 (Herbicidal ratio of 70% or higher and lower than 90%)	0 (Herbicidal ratio of 5% or lower (almost no effect))	0 (Herbicidal ratio of 5% or lower (almost no effect))	0 (Herbicidal ratio of 5% or lower (almost no effect))	1 (Herbicidal ratio of 5% or higher and lower than 20%)	2 (Herbicidal ratio of 20% or higher and lower than 40%)	0 (Herbicidal ratio of 5% or lower (almost no effect))	4 (Herbicidal ratio of 70% or higher and lower than 90%)	0 (Herbicidal ratio of 5% or lower (almost no effect))	1 (Herbicidal ratio of 5% or higher and lower than 20%)	0 (Herbicidal ratio of 5% or lower (almost no effect))	2 (Herbicidal ratio of 20% or higher and lower than 40%)	0 (Herbicidal ratio of 5% or lower (almost no effect))	0 (Herbicidal ratio of 5% or lower (almost no effect))	0 (Herbicidal ratio of 5% or lower (almost no effect))	2 (Herbicidal ratio of 20% or higher and lower than 40%)	herbicidal effect on D (Leptochloa chinensis), grade 0-5 (Leptochloa chinensis): 5 (Herbicidal ratio of 90% or more (almost completely withered)); H: Echinochloa crus-galli var. crus-galli, herbicidal effect (criteria of Test Example 1) [10]: 3 (Herbicidal ratio of 40% or higher and lower than 70%); L: Apera spica-venti, herbicidal effect grade (Apera spica-venti [11]): 0 (Herbicidal ratio of 5% or lower (almost no effect))
